The values below come from patent publication US10245249B2, “Pharmaceutical compositions comprising nitroxyl donors” (Cardioxyl Pharmaceuticals, Inc., priority 2013, dated 2019).

Data set [1] in a line: Stability of dosing solutions of compound of formula (2) stored at 25° C. (Example 11). It counts as physicochemical. Here is the method: A series of dosing solutions of the compound of formula (2) for IV administration was assessed. The selected concentrate of compound of formula (2), prepared at 30 mg/mL in a vehicle of 30% CAPTISOL® at pH 4.0, was evaluated at low, mid, and high concentrations (0.1, 1 and 5 mg/mL, respectively) upon dilution into various dosing solutions. For dilution of the compound of formula (2) to 0.1 and 1 mg/mL, three dosing solutions were evaluated; 1) D5W, 2) D5W with 5 mM K-phosphate (pH=6), and 3) D5W with 20 mM K-phosphate (pH=6). To maintain iso-osmolality for dilutions of the compound of formula (2) to 5 mg/mL, the concentration of dextrose in the dosing solutions was reduced to 2.5% (w/v). Thus, the dosing solutions evaluated were; (1) D2.5W, (2) D2.5W with 5 mM K-phosphate (pH=6), and (3) D2.5W with 20 mM K-phosphate (pH=6).
The potential dosing solutions were assessed for visual appearance, pH, osmolality, and concentration and purity by HPLC (XBridge Phenyl Column (Waters); UV absorbance detector at 272 nm; mobile phase a step gradient of aqueous acetonitrile containing 0.1% (v/v) formic acid) after approximately 0, 16, 24, and 48 hours of storage at 25° C. […] In addition, the known degradant, the compound of formula (101), formed by release of the active HNO group, was observed after 16 hours at 25° C. in small quantities by HPLC in the dosing solutions containing phosphate buffer. […]

For a further data set, the system named is healthy volunteers. The data set can be described thus: 24-hour continuous infusion dose escalation safety study in healthy volunteers. In kind it is in vivo, human. Here is the method: To determine whether a local phlebitis would occur in humans upon longer duration dosing, a longer duration study was conducted in healthy volunteers. The longer duration study included a dose escalation study in which cohorts of 10 volunteers were to be sequentially administered a 24-hour continuous infusion of CXL-1020 at the dose rates of 10, 20, and 30 μg/kg/min with a safety assessment between each cohort. Each cohort consisted of 2 placebo and 8 active treatments with a sentinel pair of 1 active and 1 placebo followed by the main group of 1 placebo and 7 active treatments. The infusion was via a percutaneous catheter inserted into a forearm vein. The catheter was switched to the contralateral arm after 12 hours of infusion.

The test system of the next data set is dogs. The data set can be described thus: 14-day continuous infusion tolerance studies of CXL-1020 in dogs. In kind it is in vivo. Here is the method:
During in vivo trials of the nitroxyl donor CXL-1020 (N-hydroxy-2-methanesulfonylbenzene-1-sulfonamide), a 14-day study was conducted to evaluate tolerance in dogs treated with continuous infusions of CXL-1020 at dose rates of up to 90 μg/kg/min.
To further investigate this undesirable side-effect, a follow-up 14-day study in dogs was initiated.

Consider `CS(=O)(=O)c1cccc(S(=O)(=O)NO)c1` [Compound 2, N-Hydroxy-3-methanesulfonylbenzene-1-sulfonamide], for which, in data set [1] (1 mg/mL in D5W with 20 mM phosphate), the osmolality result was “approximately 350 mOsm/kg”. The visual appearance entry in data set [1] (5 mg/mL in D2.5W with 5 mM phosphate (pH 6.0), after 48 hours at 25° C.) is recorded as “clear, light yellow”.
Turning to `CS(=O)(=O)c1ccccc1S(=O)(=O)NO` [CXL-1020, N-hydroxy-2-methanesulfonylbenzene-1-sulfonamide, reference compound], the tolerability entry with healthy volunteers (10 μg/kg/min for 24-hours) was “well tolerated”. The adverse findings result with healthy volunteers (20 μg/kg/min for 24-hours) is given as “mild findings (either clinical signs and/or changes in clinical pathology) in all 8 subjects consistent with infusion site phlebitis”. This molecule had a dose rate tolerated with dogs (14-day continuous infusion, dogs) of 60 µg/kg/min. In the data set on dogs (dog, in vivo), the “side effects in follow-up 14-day study” value was “significant swelling and inflammation in the dogs' hind limbs”.
